Data as given in patent US20250281568A1, “METHOD FOR TREATING OR PREVENTING DRUG-INDUCED LIVER INJURY WITH PEPTIDE COMPOSITION” (Tunghai University, priority 2024, published 2025).

Experiments:
Type in all cases: in vivo
BALB/cByJNarl mice [1] = test: Analysis of proteins in the liver of mice injected with acetaminophen; settings: 50 mg/kg/day oral, 7 days; vs control group
Protocol: (§1) After being raised under the corresponding conditions for 7 days, each group of mice was weighed and then fasted for 12 hours. After fasting, each group of mice was intraperitoneally injected with an acetaminophen solution at 300 mg/kg. 24 hours after the injection, the mice were sacrificed, and blood was collected from the mice.
Livers were collected from each group of mice in example 2 and were analyzed in order to determine the concentrations of superoxidase dismutase (SOD), glutathione peroxidase (GPx), and glutathione (GSH) in the livers.

[2] = Animal test: body weight and organ weights of mice; settings: 50 mg/kg/day oral, 7 days, then acetaminophen 300 mg/kg i.p.
Protocol: as §1

BALB/cByJNarl mice [3] = test: Analysis of stained liver tissue sections (H&E, immunohistochemical staining) of mice injected with acetaminophen; settings: 50 mg/kg/day oral, 7 days
Protocol: as §1
The liver tissue collected from each group of mice in example 2 was sectioned and then subjected to immunohistochemical staining with hematoxylin and eosin (H&E) and with different antibodies.

BALB/cByJNarl mice [4] = test: Biochemical analysis of blood (serum) of mice injected with acetaminophen; settings: 50 mg/kg/day oral, 7 days
Protocol: as §1
The blood collected from each group of mice in example 2 was analyzed with a commercial assay kit in order to determine the concentrations of aspartate aminotransferase (AST), alanine aminotransferase (ALT), alkaline phosphatase (ALP), C-reactive protein (CRP), interleukin-6 (IL-6), and monocyte chemoattractant protein-1 (MCP-1) in the serum of each group of mice.

[5] = immunohistochemical staining, vs control group

NCCC(=O)N[C@@H](Cc1cnc[nH]1)C(=O)O [carnosine]
liver GPx concentration (BALB/cByJNarl mice [1]): significantly higher than those of the control group
liver GSH concentration (BALB/cByJNarl mice [1]): significantly higher than those of the control group
liver SOD concentration (BALB/cByJNarl mice [1]): significantly higher than those of the control group
weight of heart ([2]; 24 hours, among the groups): no significant difference in the weight of heart
liver weight ([2]; vs control group): liver weight of the control group of mice was significantly higher than those of the other groups
expression amount of 4-hydroxy-2-nonenal (4-HNE) in the liver (BALB/cByJNarl mice [3]; [5]): significantly less
expression amount of GSH in the liver (BALB/cByJNarl mice [3]; [5]): significantly greater
expression amount of Kelch-like ECH-associated protein 1 (Keap1) in the liver (BALB/cByJNarl mice [3]; [5]): significantly less
expression amount of heme oxygenase 1 (HO-1) in the liver (BALB/cByJNarl mice [3]; [5]): significantly greater
expression amount of nuclear factor erythroid 2-related factor 2 (Nrf2) in the liver (BALB/cByJNarl mice [3]; [5]): significantly greater
liver cell damage (H&E-stained liver section) (BALB/cByJNarl mice [3]; vs blank group): significantly damaged in comparison with those of the blank group
liver cell damage (H&E-stained liver section) (BALB/cByJNarl mice [3]; vs control group): damaged to a smaller extent than those of the control group
serum CRP concentration (BALB/cByJNarl mice [4]; vs blank group): not significantly different from that of the blank group
serum ALP concentration (BALB/cByJNarl mice [4]; vs control group): significantly lower than those of the control group
serum ALT concentration (BALB/cByJNarl mice [4]; vs control group): significantly lower than those of the control group
serum AST concentration (BALB/cByJNarl mice [4]; vs control group): significantly lower than those of the control group
serum CRP concentration (BALB/cByJNarl mice [4]; vs control group): significantly lower than that of the control group
serum IL-6 concentration (BALB/cByJNarl mice [4]; vs control group): lower than that of the control group
serum MCP-1 concentration (BALB/cByJNarl mice [4]; vs control group): significantly lower than that of the control group
